Test results taken from ChEMBL document CHEMBL4334438, “Discovery of novel glycogen synthase kinase-3α inhibitors: Structure-based virtual screening, preliminary SAR and biological evaluation for treatment of acute myeloid leukemia” (Eur J Med Chem, 2019).

What was measured:
[1] = molecular target: Cyclin-dependent kinase-like 3 (Homo sapiens) (UniProt Q8IVW4); assay: Inhibition of recombinant full length human CDKL3 assessed as residual activity at 1 uM using RRRFRPASPLRGPPK as substrate incubated for 120 mins in presence of [gamma-33ATP] by scintillation counting based radiometry assay relative to control
[2] = species on record: Homo sapiens; assay: Inhibition of recombinant human Ros V2262A mutant (1883 to end residues) assessed as residual activity at 1 uM using KKKSPGEYVNIEFG as substrate measured after 40 mins in presence of [gamma33P]ATP by scintillation counting method relative to control
[3] = molecular target: [Pyruvate dehydrogenase (acetyl-transferring)] kinase isozyme 2, mitochondrial (Homo sapiens) (UniProt Q15119); assay: Inhibition of human PDHK2 assessed as residual activity at 1 uM by radiometric method
[4] = molecular target: Serine/threonine-protein kinase Nek6 (Homo sapiens) (UniProt Q9HC98); assay: Inhibition of recombinant human NEK6 (2 to end residues) assessed as residual activity at 1 uM using FLAKSFGSPNRAYKK as substrate measured after 40 mins in presence of [gamma33P]ATP by scintillation counting method relative to control
[5] = molecular target: Glycogen synthase kinase-3 beta (Homo sapiens, UniProt P49841, H350L); assay: Inhibition of human GSK-3beta H350L mutant (2 to end residues) at 10 uM using phospho GS2 peptide as substrate after 40 mins by [gamma-33ATP] radiometric assay
[6] = species on record: Homo sapiens; assay: Inhibition of recombinant full-length human ATRIP/ATR M211T mutant at 1 uM assessed as residual activity at 1 uM using GST-cMyc-p53 as substrate measured after 40 mins by fluorescence assay
[7] = tested on: Protein kinase C eta type (Homo sapiens), P24723 [UNDEFINED MUTATION]; assay: Inhibition of recombinant human PKCeta V108L/G109R/L392Q mutant (2 to end residues) assessed as residual activity at 1 uM using ERMRPRKRQGSVRRRV as substrate incubated for 40 mins in presence of [gamma33P]ATP by scintillation counting based radiometry assay relative to control
[8] = molecular target: Dual specificity protein kinase CLK4 (Homo sapiens) (UniProt Q9HAZ1); assay: Inhibition of recombinant human CLK4 (128 to end residues) assessed as residual activity at 1 uM using YRRAAVPPSPSLSR as substrate incubated 40 mins in presence of [gamma-33ATP] by scintillation counting based radiometry assay relative to control
[9] = molecular target: CDK6/cyclin D3 (Homo sapiens) (UniProt P30281+Q00534); assay: Inhibition of recombinant full length human CDK6/cyclinD3 assessed as residual activity at 1 uM using histone H1 as substrate incubated for 40 mins in presence of [gamma-33ATP] by scintillation counting based radiometry assay relative to control; assay type: protein-complex assay
[10] = molecular target: TGF-beta receptor type-2 (Homo sapiens) (UniProt P37173); assay: Inhibition of human TGFBR2 (188 to end residues) assessed as residual activity at 1 uM using myelin basic protein as substrate measured after 120 mins in presence of [gamma33P]ATP by scintillation counting method relative to control
[11] = species on record: Homo sapiens; assay: Inhibition of recombinant full length human Aurora A I31F mutant assessed as residual activity at 1 uM using LRRASLG as substrate incubated for 40 mins in presence of [gamma-33ATP] by scintillation counting based radiometry assay relative to control
[12] = molecular target: Interleukin-1 receptor-associated kinase 1 (Homo sapiens) (UniProt P51617); assay: Inhibition of human IRAK1 (194 to end residues) assessed as residual activity at 1 uM using myelin basic protein as substrate after 40 mins by [gamma-33ATP] radiometric assay relative to control
[13] = molecular target: Tyrosine-protein kinase FRK (Homo sapiens) (UniProt P42685); assay: Inhibition of recombinant human PTK5 (218 to end residues) assessed as residual activity at 1 uM using GGEEEEYFELVKKKK as substrate measured after 40 mins in presence of [gamma33P]ATP by scintillation counting method relative to control
[14] = molecular target: Activin receptor type-1-like (Homo sapiens) (UniProt P37023); assay: Inhibition of recombinant human ALK1 (142 to end residues) assessed as residual activity at 1 uM using casein as substrate incubated for 40 mins in presence of [gamma-33ATP] by scintillation counting based radiometry assay relative to control
[15] = molecular target: Casein kinase I isoform delta (Homo sapiens) (UniProt P48730); assay: Inhibition of recombinant human CK1delta (1 to 294 residues) assessed as residual activity at 1 uM using KRRRALS(p)VASLPGL as substrate incubated for 40 mins in presence of [gamma-33ATP] by scintillation counting based radiometry assay relative to control
[16] = molecular target: 3-phosphoinositide-dependent protein kinase 1 (Homo sapiens) (UniProt O15530); assay: Inhibition of recombinant human PDK1 (52 to end residues) assessed as residual activity at 1 uM using PDKtide as substrate measured after 40 mins in presence of [gamma33P]ATP by scintillation counting method relative to control
[17] = molecular target: Casein kinase 2 (Homo sapiens) (UniProt P67870+P68400+P19784+Q8NEV1); assay: Inhibition of recombinant human CK2 assessed as residual activity at 1 uM in presence of [gamma-33ATP] by scintillation counting based radiometry assay relative to control; assay type: protein assay
[18] = tested on: Tyrosine-protein kinase ABL1 (Homo sapiens), P00519 [T315I]; assay: Inhibition of human ABL1 T315I mutant (27 to end residues) assessed as residual activity at 1 uM using EAIYAAPFAKKK as substrate incubated for 40 mins in presence of [gamma-33ATP] by scintillation counting based radiometry assay relative to control
[19] = molecular target: Phosphatidylinositol 4-phosphate 5-kinase type-1 gamma (Homo sapiens) (UniProt O60331); assay: Inhibition of recombinant full-length human PIP5K1gamma at 1 uM assessed as residual activity at 1 uM using phosphatidylinositol 4-phosphate as substrate measured after 40 mins by HTRF assay
[20] = molecular target: Testis-specific serine/threonine-protein kinase 3 (Homo sapiens) (UniProt Q96PN8); assay: Inhibition of recombinant full-length human TSSK3 at 1 uM assessed as residual activity at 1 uM using AMARAASAAALARRR as substrate measured after 40 mins in presence of [gamma33P]ATP by scintillation counting method relative to control
[21] = molecular target: Tyrosine-protein kinase ZAP-70 (Homo sapiens) (UniProt P43403); assay: Inhibition of recombinant full-length human ZAP70 at 1 uM assessed as residual activity at 1 uM using poly(Glu, Tyr) 4:1 as substrate measured after 40 mins in presence of [gamma33P]ATP by scintillation counting method relative to control
[22] = molecular target: Dual specificity protein kinase CLK1 (Homo sapiens) (UniProt P49759); assay: Inhibition of recombinant human CLK1 (130 to end residues) assessed as residual activity at 1 uM using ERMRPRKRQGSVR as substrate incubated 40 mins in presence of [gamma-33ATP] by scintillation counting based radiometry assay relative to control
Chain of Dual specificity protein kinase CLK1 (Homo sapiens) (P49759 whole entry, looked up): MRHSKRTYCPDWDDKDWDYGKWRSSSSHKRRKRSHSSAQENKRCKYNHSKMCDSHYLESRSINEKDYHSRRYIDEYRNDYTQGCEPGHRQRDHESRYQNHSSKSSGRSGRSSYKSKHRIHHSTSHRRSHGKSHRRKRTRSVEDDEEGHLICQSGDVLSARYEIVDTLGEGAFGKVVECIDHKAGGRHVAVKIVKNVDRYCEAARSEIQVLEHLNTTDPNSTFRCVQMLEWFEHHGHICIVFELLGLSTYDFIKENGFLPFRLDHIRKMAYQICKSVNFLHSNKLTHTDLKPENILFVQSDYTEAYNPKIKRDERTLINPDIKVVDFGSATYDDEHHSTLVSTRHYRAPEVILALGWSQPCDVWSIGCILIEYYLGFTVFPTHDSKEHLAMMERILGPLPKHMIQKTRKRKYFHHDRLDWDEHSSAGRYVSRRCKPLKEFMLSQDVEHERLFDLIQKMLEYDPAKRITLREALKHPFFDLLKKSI

Chain of Interleukin-1 receptor-associated kinase 1 (Homo sapiens) (P51617 whole entry, looked up): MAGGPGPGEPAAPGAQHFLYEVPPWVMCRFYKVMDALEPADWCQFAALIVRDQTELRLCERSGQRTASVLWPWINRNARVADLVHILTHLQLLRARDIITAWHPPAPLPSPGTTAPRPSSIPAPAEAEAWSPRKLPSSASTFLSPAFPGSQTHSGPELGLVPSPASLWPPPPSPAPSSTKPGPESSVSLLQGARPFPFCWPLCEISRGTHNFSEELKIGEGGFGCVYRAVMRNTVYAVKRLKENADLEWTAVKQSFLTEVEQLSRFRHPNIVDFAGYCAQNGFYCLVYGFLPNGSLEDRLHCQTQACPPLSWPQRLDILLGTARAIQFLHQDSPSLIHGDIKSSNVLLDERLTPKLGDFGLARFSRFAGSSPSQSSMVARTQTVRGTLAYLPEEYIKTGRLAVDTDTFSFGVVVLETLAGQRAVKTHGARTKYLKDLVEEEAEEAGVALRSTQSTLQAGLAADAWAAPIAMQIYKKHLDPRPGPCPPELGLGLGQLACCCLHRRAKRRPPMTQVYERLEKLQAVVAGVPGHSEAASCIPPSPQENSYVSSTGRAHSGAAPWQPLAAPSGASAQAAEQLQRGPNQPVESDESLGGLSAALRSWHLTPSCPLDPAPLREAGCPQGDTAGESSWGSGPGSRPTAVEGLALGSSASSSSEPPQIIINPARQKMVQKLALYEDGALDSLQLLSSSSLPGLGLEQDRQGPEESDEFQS
Chain of TGF-beta receptor type-2 (Homo sapiens) (P37173 whole entry): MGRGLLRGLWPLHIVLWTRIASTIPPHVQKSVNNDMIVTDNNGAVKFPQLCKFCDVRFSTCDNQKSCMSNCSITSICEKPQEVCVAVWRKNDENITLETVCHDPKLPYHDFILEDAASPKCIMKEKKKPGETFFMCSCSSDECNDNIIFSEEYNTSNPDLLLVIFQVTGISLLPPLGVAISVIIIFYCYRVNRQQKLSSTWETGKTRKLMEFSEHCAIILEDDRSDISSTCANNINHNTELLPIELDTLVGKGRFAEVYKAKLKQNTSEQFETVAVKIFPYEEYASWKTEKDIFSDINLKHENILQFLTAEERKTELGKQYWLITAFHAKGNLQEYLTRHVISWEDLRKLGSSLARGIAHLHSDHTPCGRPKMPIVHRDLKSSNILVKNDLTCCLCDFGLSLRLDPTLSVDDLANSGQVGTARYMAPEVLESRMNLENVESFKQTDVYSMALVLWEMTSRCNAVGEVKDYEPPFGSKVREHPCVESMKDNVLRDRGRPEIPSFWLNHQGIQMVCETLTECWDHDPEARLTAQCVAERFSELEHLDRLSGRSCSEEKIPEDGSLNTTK
Chain of 3-phosphoinositide-dependent protein kinase 1 (Homo sapiens) (O15530 whole entry): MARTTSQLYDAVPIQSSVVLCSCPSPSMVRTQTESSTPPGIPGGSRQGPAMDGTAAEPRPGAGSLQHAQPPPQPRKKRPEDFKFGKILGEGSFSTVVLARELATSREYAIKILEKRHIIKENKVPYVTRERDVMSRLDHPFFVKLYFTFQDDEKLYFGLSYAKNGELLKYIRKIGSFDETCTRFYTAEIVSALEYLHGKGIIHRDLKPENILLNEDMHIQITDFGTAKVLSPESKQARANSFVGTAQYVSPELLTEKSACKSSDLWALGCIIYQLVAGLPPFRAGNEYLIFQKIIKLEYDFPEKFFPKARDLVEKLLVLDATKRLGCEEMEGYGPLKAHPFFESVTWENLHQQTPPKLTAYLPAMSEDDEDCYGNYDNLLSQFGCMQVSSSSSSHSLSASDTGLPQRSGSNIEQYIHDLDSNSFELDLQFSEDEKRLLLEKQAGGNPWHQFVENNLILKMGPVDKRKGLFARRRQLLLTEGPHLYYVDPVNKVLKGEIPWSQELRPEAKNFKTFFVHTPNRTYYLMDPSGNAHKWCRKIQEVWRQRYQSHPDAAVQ
Chain of Serine/threonine-protein kinase Nek6 (Homo sapiens) (Q9HC98 whole entry): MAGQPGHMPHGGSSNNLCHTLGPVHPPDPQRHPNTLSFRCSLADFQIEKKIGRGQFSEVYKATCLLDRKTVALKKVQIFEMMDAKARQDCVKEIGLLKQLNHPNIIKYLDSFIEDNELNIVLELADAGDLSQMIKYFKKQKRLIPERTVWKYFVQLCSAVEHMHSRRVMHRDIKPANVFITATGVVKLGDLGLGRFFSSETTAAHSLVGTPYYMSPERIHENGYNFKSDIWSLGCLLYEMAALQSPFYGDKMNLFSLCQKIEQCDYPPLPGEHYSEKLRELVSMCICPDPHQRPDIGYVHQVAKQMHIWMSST
Chain of Casein kinase I isoform delta (Homo sapiens) (P48730 whole entry, looked up, the tested form may be a part, canonical isoform): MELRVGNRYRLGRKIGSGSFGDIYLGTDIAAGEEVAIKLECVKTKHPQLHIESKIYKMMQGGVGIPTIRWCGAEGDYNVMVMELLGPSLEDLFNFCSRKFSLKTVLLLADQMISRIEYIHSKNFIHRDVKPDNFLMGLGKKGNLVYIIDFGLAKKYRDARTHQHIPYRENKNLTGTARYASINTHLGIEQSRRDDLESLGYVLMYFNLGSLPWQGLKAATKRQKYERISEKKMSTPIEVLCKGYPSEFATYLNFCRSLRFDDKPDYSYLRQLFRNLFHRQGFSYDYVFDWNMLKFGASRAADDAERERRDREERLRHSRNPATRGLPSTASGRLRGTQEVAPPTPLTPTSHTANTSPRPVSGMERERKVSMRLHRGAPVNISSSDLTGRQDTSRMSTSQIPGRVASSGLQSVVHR
Chain of Tyrosine-protein kinase ZAP-70 (Homo sapiens) (P43403 whole entry): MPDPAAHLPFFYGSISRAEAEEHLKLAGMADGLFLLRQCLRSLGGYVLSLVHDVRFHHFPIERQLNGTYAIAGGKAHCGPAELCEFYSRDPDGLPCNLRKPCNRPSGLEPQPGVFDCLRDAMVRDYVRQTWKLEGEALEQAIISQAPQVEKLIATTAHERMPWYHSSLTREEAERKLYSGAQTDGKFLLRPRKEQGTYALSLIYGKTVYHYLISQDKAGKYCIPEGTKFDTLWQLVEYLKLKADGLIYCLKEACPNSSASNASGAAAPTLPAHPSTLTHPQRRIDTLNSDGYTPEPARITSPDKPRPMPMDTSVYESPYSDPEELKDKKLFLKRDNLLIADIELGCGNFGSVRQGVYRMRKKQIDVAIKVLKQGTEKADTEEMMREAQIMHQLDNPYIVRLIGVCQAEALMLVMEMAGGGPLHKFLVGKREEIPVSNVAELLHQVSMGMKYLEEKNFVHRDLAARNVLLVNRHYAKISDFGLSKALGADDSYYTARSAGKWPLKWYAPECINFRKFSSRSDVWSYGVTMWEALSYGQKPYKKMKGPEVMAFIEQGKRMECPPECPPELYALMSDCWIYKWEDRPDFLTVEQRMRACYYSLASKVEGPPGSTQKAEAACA
Chain of Protein kinase C eta type (Homo sapiens), P24723 [UNDEFINED MUTATION] (P24723 whole entry, looked up, stated change not applied): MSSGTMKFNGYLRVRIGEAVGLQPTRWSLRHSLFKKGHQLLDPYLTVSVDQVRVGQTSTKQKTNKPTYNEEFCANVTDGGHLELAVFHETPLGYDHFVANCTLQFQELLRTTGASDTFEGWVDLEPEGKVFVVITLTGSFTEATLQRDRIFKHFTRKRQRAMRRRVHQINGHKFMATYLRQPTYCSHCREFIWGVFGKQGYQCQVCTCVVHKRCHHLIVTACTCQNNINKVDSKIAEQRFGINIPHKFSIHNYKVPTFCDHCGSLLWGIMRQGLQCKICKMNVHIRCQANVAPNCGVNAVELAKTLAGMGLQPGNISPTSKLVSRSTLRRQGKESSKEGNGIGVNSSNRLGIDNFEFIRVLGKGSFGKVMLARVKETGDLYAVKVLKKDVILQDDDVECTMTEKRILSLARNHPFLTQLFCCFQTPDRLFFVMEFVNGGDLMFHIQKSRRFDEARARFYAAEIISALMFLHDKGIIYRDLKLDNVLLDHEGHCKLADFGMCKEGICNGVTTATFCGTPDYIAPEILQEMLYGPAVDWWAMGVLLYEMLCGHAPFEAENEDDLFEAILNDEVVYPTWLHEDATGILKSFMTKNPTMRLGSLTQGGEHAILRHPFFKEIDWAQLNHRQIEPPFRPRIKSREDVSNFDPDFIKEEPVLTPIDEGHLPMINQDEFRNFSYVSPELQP
Chain of Cyclin-dependent kinase-like 3 (Homo sapiens) (Q8IVW4 whole entry, looked up): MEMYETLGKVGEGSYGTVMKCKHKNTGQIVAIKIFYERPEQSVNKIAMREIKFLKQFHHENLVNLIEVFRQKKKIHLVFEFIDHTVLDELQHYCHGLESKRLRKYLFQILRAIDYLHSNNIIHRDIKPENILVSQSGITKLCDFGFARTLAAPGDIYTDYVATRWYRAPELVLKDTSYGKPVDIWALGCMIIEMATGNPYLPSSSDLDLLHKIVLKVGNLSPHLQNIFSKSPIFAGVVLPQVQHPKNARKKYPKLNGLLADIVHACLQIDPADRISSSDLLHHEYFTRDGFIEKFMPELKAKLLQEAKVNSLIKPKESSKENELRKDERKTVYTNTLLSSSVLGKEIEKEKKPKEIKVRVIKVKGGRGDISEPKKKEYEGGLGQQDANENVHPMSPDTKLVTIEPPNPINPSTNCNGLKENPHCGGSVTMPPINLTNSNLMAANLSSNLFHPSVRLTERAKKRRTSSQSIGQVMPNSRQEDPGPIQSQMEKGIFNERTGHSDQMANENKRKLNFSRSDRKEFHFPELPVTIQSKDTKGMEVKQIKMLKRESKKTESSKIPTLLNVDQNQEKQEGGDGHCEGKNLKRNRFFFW

Structure (SMILES)	Activity [1] [%]	Activity [2] [%]	Activity [3] [%]	Activity [4] [%]	IC50 [5] [nM]	Activity [6] [%]	Activity [7] [%]	Activity [8] [%]	Activity [9] [%]	Activity [10] [%]	Activity [11] [%]	Activity [12] [%]	Activity [13] [%]	Activity [14] [%]	Activity [15] [%]	Activity [16] [%]	Activity [17] [%]	Activity [18] [%]	Activity [19] [%]	Activity [20] [%]	also measured
C=CCOC(=O)c1cc(-c2ccc(/C=C3/NC(=S)NC3=O)o2)ccc1Cl	67	118	107	98	218	102	99	18	84	90	114	90	96	95	94	87	58	103	100	99	Activity [21]: 107%; Activity [22]: 26%
N=C1NC(=O)/C(=C\c2ccc(-c3cccc([N+](=O)[O-])c3)o2)S1	54	95	102	102	110	111	101	60	92	61	101	100	92	99	101	96	43	75	101	106	Activity [21]: 106%; Activity [22]: 50%
